Data: ChEMBL document CHEMBL5316361 (J Nat Prod, 2023)
In brackets after ≈: the same amount, converted by molar mass.

What was measured:
[1] = Hemolytic activity against Sheep RBC assessed as hemolysis by microplate reader analysis; type: toxicity, cell-based, Ovis aries, Erythrocyte; details: sheep red blood cells (erythrocytes)
MDA-MB-231 [2] = test: Cytotoxicity against human MDA-MB-231 cultured as 2.5D cells assessed as inhibition of cell growth measured after 12 hrs by CellTiter-Glo luciferase detection reagent based assay; type: functional; details: MDA-MB-231, 12 h
[3] = Therapeutic index, ratio of IC50 for cytotoxicity against human dermal fibroblast cultured as 2D cells to IC50 for cytotoxicity against human MDA-MB-231 cultured as 2D cells; type: toxicity, cell-based; details: human dermal fibroblasts versus MDA-MB-231 cells, 2D culture, read-out: TI
[4] = Therapeutic index, ratio of IC50 for cytotoxicity against human dermal fibroblast cultured as 2.5 D cells to IC50 for cytotoxicity against human MDA-MB-231 cultured as 2.5 D cells; type: toxicity, cell-based; details: read-out: TI
[5] = Therapeutic index, ratio of IC50 for cytotoxicity against human dermal fibroblast cultured as 3D cells to IC50 for cytotoxicity against human MDA-MB-231 cultured as 3D cells; type: toxicity, cell-based; details: human dermal fibroblasts versus MDA-MB-231 cells, 3D culture, read-out: TI
[6] = Therapeutic index, ratio of HC50 for sheep RBC to IC50 for cytotoxicity against human MDA-MB-231 cultured as 2D cells; type: toxicity, cell-based; details: sheep (RBC) and human (MDA-MB-231), sheep red blood cells versus MDA-MB-231 cells, 2D culture; read-out: TI
[7] = Therapeutic index, ratio of HC50 for Sheep RBC to IC50 for cytotoxicity against human MDA-MB-231 cultured as 2.5D cells; type: toxicity, cell-based; details: sheep (RBC) and human (MDA-MB-231), sheep red blood cells versus MDA-MB-231 cells, 2.5D culture; read-out: TI
[8] = Therapeutic index, ratio of HC50 for Sheep RBC to IC50 for cytotoxicity against human MDA-MB-231 cultured as 3D cells; type: toxicity, cell-based; details: sheep (RBC) and human (MDA-MB-231), sheep red blood cells versus MDA-MB-231 cells, 3D culture; read-out: TI
MDA-MB-231 [9] = test: Cytotoxicity against human MDA-MB-231 cultured as 2D cells assessed as inhibition of cell growth measured after 12 hrs by CCK8 assay; type: functional, cell-based; details: MDA-MB-231, 12 h
MDA-MB-231 [10] = test: Cytotoxicity against human MDA-MB-231 cultured as 3D cells assessed as inhibition of cell growth measured after 12 hrs by CellTiter-Glo luciferase detection reagent based assay; type: functional; details: MDA-MB-231, 12 h
[11] = Selectivity ratio of IC50 for human MDA-MB-231 cultured as 2.5D cells to IC50 for human MDA-MB-231 cultured as 2D cells; type: functional
Jurkat = test: Antiproliferative activity against human Jurkat T cells assessed as inhibition of cell growth at 25 ug/ml relative to control; type: functional
MDA-MB-231 [12] = test: Cytotoxicity against human MDA-MB-231 cells cultured as 2.5D cells assessed as cell death at 125 ug/ml measured after 12 hrs by OCT/imaris based analysis relative to control; type: functional; details: dose 125 µg/ml
MDA-MB-231 [13] = test: Cytotoxicity against human MDA-MB-231 cells cultured as 2.5D cells assessed as cell death measured after 12 hrs relative to control; type: functional
MDA-MB-231 [14] = test: Cytotoxicity against human MDA-MB-231 cells cultured as 3D cells assessed as cell death measured after 12 hrs relative to control; type: functional
[15] = Cytotoxicity against human dermal fibroblast cultured as 2D cells assessed as reduction in cell viability measured after 12 hrs by CCK8 assay; type: toxicity, cell-based; details: human dermal fibroblasts (NHDF), 2D culture
[16] = Hemolytic activity in Sheep RBC assessed as hemolysis at 31 ug/ml by microplate reader analysis relative to control; type: toxicity, cell-based, Ovis aries, Erythrocyte; details: sheep red blood cells (erythrocytes), at 31 µg/mL, read-out: Activity
[17] = Selectivity ratio of IC50 for human MDA-MB-231 cultured as 3D cells to IC50 for human MDA-MB-231 cultured as 2D cells; type: functional
MDA-MB-231 [18] = test: Cytotoxicity against human MDA-MB-231 cells cultured as 3D cells assessed as cell death at 125 ug/ml measured after 12 hrs by OCT/imaris based analysis relative to control; type: functional; details: dose 125 µg/ml
MDA-MB-231 [19] = test: Cytotoxicity against human MDA-MB-231 cells cultured as 2.5D cells assessed as cell death at 125 ug/ml measured after 12 hrs by tryphan blue based analysis relative to control; type: functional; details: dose 125 µg/ml
MDA-MB-231 [20] = test: Cytotoxicity against human MDA-MB-231 cells cultured as 3D cells assessed as cell death at 125 ug/ml measured after 12 hrs by tryphan blue based analysis relative to control; type: functional; details: dose 125 µg/ml
MDA-MB-231 [21] = test: Cytotoxicity against human MDA-MB-231 cells cultured as 2.5D cells assessed as decrease in live cell count at 125 ug/ml incubated for 12 hrs by tryphan blue based analysis (Rvb=22000x10^3No_unit); type: functional; details: dose 125 µg/ml
MDA-MB-231 [22] = test: Cytotoxicity against human MDA-MB-231 cells cultured as 3D cells assessed as decrease in live cell count at 125 ug/ml incubated for 12 hrs by tryphan blue based analysis (Rvb=20900x10^3No_unit); type: functional; details: dose 125 µg/ml
MDA-MB-231 [23] = test: Cytotoxicity against human MDA-MB-231 cells cultured as 2.5D cells assessed as increase in dead cell count at 125 ug/ml incubated for 12 hrs by tryphan blue based analysis (Rvb=7700x10^3No_unit); type: functional; details: dose 125 µg/ml
MDA-MB-231 [24] = test: Cytotoxicity against human MDA-MB-231 cells cultured as 3D cells assessed as increase in dead cell count at 125 ug/ml incubated for 12 hrs by tryphan blue based analysis (Rvb=11000x10^3No_unit); type: functional; details: dose 125 µg/ml
MDA-MB-231 [25] = test: Cytotoxicity against human MDA-MB-231 cells cultured as 2.5D cells assessed as cell death at 62.5 ug/ml measured after 12 hrs by OCT/imaris based analysis relative to control; type: functional; details: dose 62.5 µg/ml
MDA-MB-231 [26] = test: Cytotoxicity against human MDA-MB-231 cells cultured as 3D cells assessed as cell death at 62.5 ug/ml measured after 12 hrs by OCT/imaris based analysis relative to control; type: functional; details: dose 62.5 µg/ml
MDA-MB-231 [27] = test: Cytotoxicity against human MDA-MB-231 cells cultured as 2.5D cells assessed as cell death at 62.5 ug/ml measured after 12 hrs by tryphan blue based analysis relative to control; type: functional; details: dose 62.5 µg/ml
MDA-MB-231 [28] = test: Cytotoxicity against human MDA-MB-231 cells cultured as 3D cells assessed as cell death at 62.5 ug/ml measured after 12 hrs by tryphan blue based analysis relative to control; type: functional; details: dose 62.5 µg/ml
MDA-MB-231 [29] = test: Cytotoxicity against human MDA-MB-231 cells cultured as 2.5D cells assessed as decrease in live cell count at 62.5 ug/ml incubated for 12 hrs by tryphan blue based analysis (Rvb=22000x10^3No_unit); type: functional; details: dose 62.5 µg/ml
MDA-MB-231 [30] = test: Cytotoxicity against human MDA-MB-231 cells cultured as 3D cells assessed as decrease in live cell count at 62.5 ug/ml incubated for 12 hrs by tryphan blue based analysis (Rvb=20900x10^3No_unit); type: functional; details: dose 62.5 µg/ml
MDA-MB-231 [31] = test: Cytotoxicity against human MDA-MB-231 cells cultured as 2.5D cells assessed as increase in dead cell count at 62.5 ug/ml incubated for 12 hrs by tryphan blue based analysis (Rvb=7700x10^3No_unit); type: functional; details: dose 62.5 µg/ml
MDA-MB-231 [32] = test: Cytotoxicity against human MDA-MB-231 cells cultured as 3D cells assessed as increase in dead cell count at 62.5 ug/ml incubated for 12 hrs by tryphan blue based analysis (Rvb=11000x10^3No_unit); type: functional; details: dose 62.5 µg/ml
[33] = Growth inhibition of human dermal fibroblast cultured as 2D cells by tryphan blue based analysis; type: toxicity, cell-based; details: human dermal fibroblasts (NHDF), 2D culture

For CCOC(=O)CCCCCCC/C=C\CCCCCCC(C)O[C@@H]1O[C@H](COC(C)=O)[C@@H](O)[C@H](O)[C@H]1O[C@@H]1O[C@H](COC(C)=O)[C@@H](O)[C@H](O)[C@H]1O (stereo not given in full), which HC50 [1] is on record?
Its HC50 is 125 µg/mL.

And the IC50 (MDA-MB-231 [2])?
The IC50 was 120 µg/mL (≈ 163 µM).

And the selectivity ratio [3]?
The selectivity ratio was 1.59.

What about the selectivity ratio [4] of the same compound?
Its selectivity ratio is 0.36.

And the selectivity ratio [5]?
The selectivity ratio was 0.33.

What about the selectivity ratio [6] of the same compound?
The selectivity ratio was 4.63.

What about the selectivity ratio [7] of the same compound?
The selectivity ratio was 1.04.

And the selectivity ratio [8]?
The selectivity ratio was 0.96.

And the IC50 (MDA-MB-231 [9])?
The IC50 was 27 µg/mL (≈ 36.7 µM).

What about the IC50 (MDA-MB-231 [10]) of the same compound?
The IC50 was 130 µg/mL (≈ 177 µM).

What about the “Ratio IC50” value [11] of the same compound?
Its value is 4.5.

And the inhibition at 25 µg/mL (Jurkat)?
Its inhibition at 25 µg/mL is 90%.

What about the Activity (MDA-MB-231 [12]) of the same compound?
The Activity was 70%.

What about the Activity (MDA-MB-231 [13]) of the same compound?
Its Activity is 80.2%.

And the Activity (MDA-MB-231 [14])?
The Activity was 88.2%.

What about the IC50 at 12 h [15] of the same compound?
Its IC50 at 12 h is 43 µg/mL (≈ 58.5 µM).

And the hemolysis at 31 ug/ml [16]?
Its hemolysis at 31 ug/ml is greater than 10%.

And the “Ratio IC50” value [17]?
Its value is 5.

What about the Activity (MDA-MB-231 [18]) of the same compound?
Its Activity is 70%.

What about the Activity (MDA-MB-231 [19]) of the same compound?
The Activity was 70%.

What about the Activity (MDA-MB-231 [20]) of the same compound?
Its Activity is 70%.

And the Activity (MDA-MB-231 [21])?
The Activity was 5500 10^3No_unit.

And the Activity (MDA-MB-231 [22])?
The Activity was 3667 10^3No_unit.

And the Activity (MDA-MB-231 [23])?
Its Activity is 16317 10^3No_unit.

And the Activity (MDA-MB-231 [24])?
The Activity was 22917 10^3No_unit.

With CC(=O)OC[C@H]1O[C@H]2OC(C)CCCCCC/C=C\CCCCCCCC(=O)O[C@H]3[C@H](O)[C@@H](O)[C@H](O[C@@H]2[C@@H](O)[C@@H]1O)O[C@@H]3COC(C)=O (stereo not given in full) as the compound, how does the HC50 [1] read?
The HC50 was 125 µg/mL.

What about the IC50 (MDA-MB-231 [2]) of the same compound?
Its IC50 is 38 µg/mL (≈ 55.2 µM).

And the selectivity ratio [3]?
Its selectivity ratio is 2.21.

What about the selectivity ratio [4] of the same compound?
Its selectivity ratio is 0.82.

What about the selectivity ratio [5] of the same compound?
The selectivity ratio was 0.94.

And the selectivity ratio [6]?
Its selectivity ratio is 8.93.

What about the selectivity ratio [7] of the same compound?
The selectivity ratio was 3.29.

And the selectivity ratio [8]?
Its selectivity ratio is 3.79.

What about the IC50 (MDA-MB-231 [9]) of the same compound?
Its IC50 is 14 µg/mL (≈ 20.3 µM).

What about the IC50 (MDA-MB-231 [10]) of the same compound?
Its IC50 is 33 µg/mL (≈ 47.9 µM).

And the “Ratio IC50” value [11]?
The value was 3.

And the Activity (MDA-MB-231 [13])?
Its Activity is 88.4%.

What about the Activity (MDA-MB-231 [14]) of the same compound?
The Activity was 89.3%.

What about the IC50 at 12 h [15] of the same compound?
The IC50 at 12 h was 31 µg/mL (≈ 45 µM).

And the hemolysis at 31 ug/ml [16]?
The hemolysis at 31 ug/ml was greater than 10%.

And the “Ratio IC50” value [17]?
The value was 2.5.

And the Activity (MDA-MB-231 [25])?
The Activity was 70%.

What about the Activity (MDA-MB-231 [26]) of the same compound?
Its Activity is 70%.

What about the Activity (MDA-MB-231 [27]) of the same compound?
Its Activity is 70%.

And the Activity (MDA-MB-231 [28])?
The Activity was 70%.

What about the Activity (MDA-MB-231 [29]) of the same compound?
Its Activity is 3117 10^3No_unit.

What about the Activity (MDA-MB-231 [30]) of the same compound?
The Activity was 3300 10^3No_unit.

What about the Activity (MDA-MB-231 [31]) of the same compound?
The Activity was 13933 10^3No_unit.

And the Activity (MDA-MB-231 [32])?
Its Activity is 17783 10^3No_unit.

Which GI50 [33] does the source give for COc1cccc2c1C(=O)c1c(O)c3c(c(O)c1C2=O)C[C@@](O)(C(=O)CO)C[C@@H]3O[C@H]1C[C@H](N)[C@H](O)[C@H](C)O1 [DOXORUBICIN] here?
Its GI50 is 30 µg/mL (≈ 55.2 µM).
